Experimental data as given in patent US4070469A, “Compound for the treatment of bovine mastitis” (priority 1975, dated 1978).
Values after ≈ are worked out from the molar mass of the structure shown. Like-named read-outs stand apart in the source and are kept apart here.

What was measured:
Staph.Aureus = assay: Minimal bactericidal activity (MBC) in milk, field isolates; format: cell-based; conditions: for MBC: Staphylococcus aureus
From the text: (§1) The activity of some of said nitrofuryl quinolines derivatives against Strep.uberis and Stap.Aureus in milk has been compared with the activity of some of the compounds so far utilised in the treatment of bovine mastitis. The results are shown in Table I. (The nitrofuryl quinoline derivatives have general formula [drawing 1] the meaning of R, A, R', B, Y, X and Z being given in the Table. R1 =O whenever indicated then the N-oxide is concerned; NF stands for nitrofuryl)
(§2) Minimal Bactericidal/Activity (MBC) of representative Nitrofuryl
(§3) in mcg/ml in milk at pH 7.2 - 7.4. Versus Standards (Field

Strep.uberis = assay: as above; format: cell-based; conditions: for MBC: Streptococcus uberis
From the text: as §1, §2, §3

[1] = in milk at pH 7.2 - 7.4, field isolate 2337, read-out: Minimal Bactericidal Activity (MBC), Staph.Aureus 2337
[2] = in milk at pH 7.2 - 7.4, field isolate 2372, read-out: Minimal Bactericidal Activity (MBC), Staph.Aureus 2372
[3] = in milk at pH 7.2 - 7.4, field isolate 60B, read-out: Minimal Bactericidal Activity (MBC), Strep.uberis 60B
[4] = in milk at pH 7.2 - 7.4, field isolate 127A, read-out: Minimal Bactericidal Activity (MBC), Strep.uberis 127A
[5] = in milk at pH 7.2 - 7.4, field isolate 2337
[6] = in milk at pH 7.2 - 7.4, field isolate 2372
[7] = in milk at pH 7.2 - 7.4, field isolate 60B
[8] = in milk at pH 7.2 - 7.4, field isolate 127A
[9] = read-out: Minimal Bactericidal Activity (MBC), Staph.Aureus 2337
[10] = read-out: Minimal Bactericidal Activity (MBC), Staph.Aureus 2372
[11] = read-out: Minimal Bactericidal Activity (MBC), Strep.uberis 60B
[12] = read-out: Minimal Bactericidal Activity (MBC), Strep.uberis 127A

Molecule	MBC (Staph.Aureus; [1]) [µg/mL]	MBC (Staph.Aureus; [2]) [µg/mL]	MBC (Strep.uberis; [3]) [µg/mL]	MBC (Strep.uberis; [4]) [µg/mL]	other results
CC(=O)Oc1ccc2c(-c3ccc([N+](=O)[O-])o3)cc(C)nc2c1 [Compound 8]	5 (≈ 16 µM)	5 (≈ 16 µM)	0.25 (≈ 0.801 µM)	10 (≈ 32 µM)	–
CCOc1ccc2c(-c3ccc([N+](=O)[O-])o3)cc(C=NO)nc2c1 [Compound 38]	10 (≈ 30.6 µM)	5 (≈ 15.3 µM)	5 (≈ 15.3 µM)	10 (≈ 30.6 µM)	–
CCOc1ccc2c(-c3ccc([N+](=O)[O-])o3)cc(C(=O)O)nc2c1 [Compound 17]	1 (≈ 3.05 µM)	0.5 (≈ 1.52 µM)	0.03 (≈ 0.0914 µM)	1 (≈ 3.05 µM)	–
Cc1ccc2c(c1)c(-c1ccc([N+](=O)[O-])o1)cc(C)[n+]2[O-] [Compound 29]	5 (≈ 17.6 µM)	5 (≈ 17.6 µM)	5 (≈ 17.6 µM)	5 (≈ 17.6 µM)	–
COc1ccc2c(-c3ccc([N+](=O)[O-])o3)cc(C)[n+]([O-])c2c1 [Compound 23]	5 (≈ 16.7 µM)	5 (≈ 16.7 µM)	5 (≈ 16.7 µM)	5 (≈ 16.7 µM)	–
O=C1OCCN1/N=C/c1ccc([N+](=O)[O-])o1 [Furazolidone, reference compound]	> 10	> 10	10 (≈ 44.4 µM)	> 10	–
CCc1cc(-c2ccc([N+](=O)[O-])o2)c2cc(C)c(C)cc2[n+]1[O-] [Compound 40]	5 (≈ 16 µM)	5 (≈ 16 µM)	5 (≈ 16 µM)	10 (≈ 32 µM)	–
CCc1cccc2c(-c3ccc([N+](=O)[O-])o3)cc(C)nc12 [Compound 10]	> 10	> 10	> 10	> 10	–
O=[N+]([O-])c1ccc(-c2cc(C(Br)(Br)Br)nc3ccccc23)o1 [Compound 14]	10 (≈ 20.4 µM)	> 10	5 (≈ 10.2 µM)	5 (≈ 10.2 µM)	–
O=[N+]([O-])c1ccc(-c2cc[n+]([O-])c3ccccc23)o1 [Compound 41]	10 (≈ 39 µM)	5 (≈ 19.5 µM)	5 (≈ 19.5 µM)	10 (≈ 39 µM)	–
COc1ccc2c(-c3ccc([N+](=O)[O-])o3)cc(C)nc2c1 [Compound 9]	5 (≈ 17.6 µM)	5 (≈ 17.6 µM)	10 (≈ 35.2 µM)	5 (≈ 17.6 µM)	–
O=[N+]([O-])c1ccc(-c2ccnc3ccccc23)o1 [Compound 11]	> 10	> 10	10 (≈ 41.6 µM)	> 10	–
CC[C@H]1OC(=O)[C@H](C)[C@@H](O[C@H]2C[C@@](C)(OC)[C@@H](O)[C@H](C)O2)[C@H](C)[C@@H](O[C@@H]2O[C@H](C)C[C@H](N(C)C)[C@H]2O)[C@](C)(O)C[C@@H](C)C(=O)[C@H](C)[C@@H](O)[C@]1(C)O [Erythremycin, reference compound]	0.78 (≈ 1.06 µM)	6.25 (≈ 8.52 µM)	0.39 (≈ 0.531 µM)	3.12 (≈ 4.25 µM)	–
O=C(N[C@H](CO)[C@H](O)c1ccc([N+](=O)[O-])cc1)C(Cl)Cl [Chloramphenicol, reference compound]	> 50	> 50	50 (≈ 155 µM)	> 400	–
Cc1ccc2c(-c3ccc([N+](=O)[O-])o3)cc(C)[n+]([O-])c2c1 [Compound 21]	5 (≈ 17.6 µM)	10 (≈ 35.2 µM)	5 (≈ 17.6 µM)	10 (≈ 35.2 µM)	–
CO[C@H]1/C=C/O[C@@]2(C)Oc3c(C)c(O)c4c(O)c(cc(O)c4c3C2=O)NC(=O)/C(C)=C\C=C\[C@H](C)[C@H](O)[C@@H](C)[C@@H](O)[C@@H](C)[C@H](OC(C)=O)[C@@H]1C [Rifamycin, reference compound]	0.12 (≈ 0.172 µM)	0.12 (≈ 0.172 µM)	3.12 (≈ 4.47 µM)	> 50	–
Cc1cc(-c2ccc([N+](=O)[O-])o2)c2ccc(Cl)cc2n1 [Compound 28]	> 10	> 10	> 10	> 10	–
CC(=O)OCc1cc(-c2ccc([N+](=O)[O-])o2)c2ccccc2n1 [Compound 33]	> 10	> 10	> 10	> 10	–
Spiramycin [reference compound]	–	–	–	–	Minimal Bactericidal Activity (MBC), Staph.Aureus 2337 (Staph.Aureus; [5]): 25 µg/mL; Minimal Bactericidal Activity (MBC), Staph.Aureus 2372 (Staph.Aureus; [6]): 25 µg/mL; Minimal Bactericidal Activity (MBC), Strep.uberis 60B (Strep.uberis; [7]): 1.56 µg/mL; Minimal Bactericidal Activity (MBC), Strep.uberis 127A (Strep.uberis; [8]): 12.5 µg/mL
Cc1cc(-c2ccc([N+](=O)[O-])o2)[n+]([O-])c2ccccc12 [Compound 4]	10 (≈ 37 µM)	> 10	> 10	> 10	–
O=[N+]([O-])c1ccc(-c2cc(CO)nc3ccccc23)o1 [Compound 13]	10 (≈ 37 µM)	5 (≈ 18.5 µM)	5 (≈ 18.5 µM)	> 10	–
Cc1cc(-c2ccc([N+](=O)[O-])o2)c2ccccc2n1 [Compound 5]	> 10	> 10	10 (≈ 39.3 µM)	10 (≈ 39.3 µM)	–

Molecule	MBC (Staph.Aureus; [1]) [µg/mL]	MBC (Staph.Aureus; [2]) [µg/mL]	MBC (Strep.uberis; [3]) [µg/mL]	MBC (Strep.uberis; [4]) [µg/mL]	other results
NC[C@H]1O[C@H](O[C@H]2[C@H](O)[C@@H](O[C@H]3O[C@H](CO)[C@@H](O)[C@H](N)[C@H]3O)[C@H](N)C[C@@H]2N)[C@H](O)[C@@H](O)[C@@H]1O [Kanamycin, reference compound]	–	–	–	–	MBC (Staph.Aureus; [9]): 12.5 µg/mL (≈ 25.8 µM); MBC (Staph.Aureus; [10]): 12.5 µg/mL (≈ 25.8 µM); MBC (Strep.uberis; [11]): 100 µg/mL (≈ 206 µM); MBC (Strep.uberis; [12]): 100 µg/mL (≈ 206 µM)
Necmycin [reference compound]	–	–	–	–	Minimal Bactericidal Activity (MBC), Staph.Aureus 2337 (Staph.Aureus; [5]): 12.5 µg/mL; Minimal Bactericidal Activity (MBC), Staph.Aureus 2372 (Staph.Aureus; [6]): 12.5 µg/mL; Minimal Bactericidal Activity (MBC), Strep.uberis 60B (Strep.uberis; [7]): 200 µg/mL; Minimal Bactericidal Activity (MBC), Strep.uberis 127A (Strep.uberis; [8]): 200 µg/mL
CCc1ccc2nc(CC)cc(-c3ccc([N+](=O)[O-])o3)c2c1 [Compound 31]	> 10	> 10	> 10	> 10	–
CN(C)[C@@H]1C(=O)C(C(N)=O)=C(O)[C@@]2(O)C(=O)C3=C(O)c4c(O)cccc4[C@@](C)(O)[C@H]3[C@H](O)[C@@H]12 [Oxytetracyclin, reference compound]	–	–	–	–	MBC (Staph.Aureus; [9]): 25 µg/mL (≈ 54.3 µM); MBC (Staph.Aureus; [10]): 50 µg/mL (≈ 109 µM); MBC (Strep.uberis; [11]): 0.78 µg/mL (≈ 1.69 µM); MBC (Strep.uberis; [12]): > 50 µg/mL
CCc1cc(-c2ccc([N+](=O)[O-])o2)c2ccccc2[n+]1[O-] [Compound 30]	5 (≈ 17.6 µM)	10 (≈ 35.2 µM)	5 (≈ 17.6 µM)	> 10	–
CCc1cc(-c2ccc([N+](=O)[O-])o2)c2cc(C)ccc2n1 [Compound 12]	> 10	> 10	> 10	> 10	–
O=C(O)c1cc(-c2ccc([N+](=O)[O-])o2)c2ccccc2n1 [Compound 2, 4-(5-nitrofuryl)-quinaldinic acid]	1 (≈ 3.52 µM)	0.5 (≈ 1.76 µM)	0.12 (≈ 0.422 µM)	1 (≈ 3.52 µM)	–
O=C(c1cc(-c2ccc([N+](=O)[O-])o2)c2ccccc2n1)N1CCOCC1 [Compound 18]	> 10	10 (≈ 28.3 µM)	5 (≈ 14.2 µM)	> 10	–
O=[N+]([O-])c1ccc(-c2ccc3ccccc3n2)o1 [Compound 3]	> 10	> 10	> 10	> 10	–
COc1cc2nc(C)cc(-c3ccc([N+](=O)[O-])o3)c2cc1OC [Compound 37]	10 (≈ 31.8 µM)	5 (≈ 15.9 µM)	5 (≈ 15.9 µM)	10 (≈ 31.8 µM)	–
CCc1ccc2nc(C)cc(-c3ccc([N+](=O)[O-])o3)c2c1 [Compound 7]	> 10	> 10	> 10	> 10	–
O=[N+]([O-])c1ccc(-c2cc(C=NO)nc3ccccc23)o1 [Compound 15]	1 (≈ 3.53 µM)	1 (≈ 3.53 µM)	1 (≈ 3.53 µM)	1 (≈ 3.53 µM)	–
Cc1ccc2nc(C)cc(-c3ccc([N+](=O)[O-])o3)c2c1 [Compound 27]	10 (≈ 37.3 µM)	10 (≈ 37.3 µM)	10 (≈ 37.3 µM)	10 (≈ 37.3 µM)	–
CNN=Cc1cc(-c2ccc([N+](=O)[O-])o2)c2ccccc2n1 [Compound 36]	> 10	5 (≈ 16.9 µM)	5 (≈ 16.9 µM)	5 (≈ 16.9 µM)	–
CCc1ccc2c(c1)c(-c1ccc([N+](=O)[O-])o1)cc(C)[n+]2[O-] [Compound 20]	5 (≈ 16.8 µM)	5 (≈ 16.8 µM)	> 10	> 10	–
CCc1cc(-c2ccc([N+](=O)[O-])o2)c2ccc(OC)cc2[n+]1[O-] [Compound 24]	> 10	10 (≈ 31.8 µM)	> 10	> 10	–
CC1(C)S[C@@H]2[C@H](NC(=O)Cc3ccccc3)C(=O)N2[C@H]1C(=O)O [Penicillin G, reference compound]	> 50	> 50	0.06 (≈ 0.179 µM)	1.56 (≈ 4.67 µM)	–
Cc1cc(-c2ccc([N+](=O)[O-])o2)c2ccccc2[n+]1[O-] [Compound 6]	5 (≈ 18.5 µM)	5 (≈ 18.5 µM)	5 (≈ 18.5 µM)	5 (≈ 18.5 µM)	–
COc1cc2nc(C)cc(-c3ccc([N+](=O)[O-])o3)c2cc1N [Compound 34]	5 (≈ 16.7 µM)	5 (≈ 16.7 µM)	0.25 (≈ 0.835 µM)	1 (≈ 3.34 µM)	–
CCCOc1ccc2c(-c3ccc([N+](=O)[O-])o3)cc(C)[n+]([O-])c2c1 [Compound 42]	10 (≈ 30.5 µM)	5 (≈ 15.2 µM)	5 (≈ 15.2 µM)	5 (≈ 15.2 µM)	–
COc1ccc2c(-c3ccc([N+](=O)[O-])o3)cc(C(=O)O)[n+]([O-])c2c1 [Compound 25]	1 (≈ 3.03 µM)	5 (≈ 15.1 µM)	0.25 (≈ 0.757 µM)	0.5 (≈ 1.51 µM)	–
